ChEMBL document CHEMBL3045871, “Synthesis, biological screening and ADME prediction of benzylindole derivatives as novel anti-HIV-1, anti-fungal and anti-bacterial agents” (Med Chem Res, 2013)
Calls of active or inactive are those of the source. No cut-off for these calls is given here.

Experiments:
[1] = target: Human immunodeficiency virus type 1 reverse transcriptase (Human immunodeficiency virus 1) (UniProt Q72547); test: Inhibition of Human immunodeficiency virus 1 RT assessed at 20 ug after 1 hr by spectrophotometric analysis
Aspergillus niger = test: Antifungal activity against Aspergillus niger; assay type: functional, organism-based
Bacillus subtilis = test: Antibacterial activity against Bacillus subtilis; assay type: functional, organism-based
Penicillium chrysogenum = test: Antifungal activity against Penicillium chrysogenum; assay type: functional, organism-based
Candida albicans = test: Antifungal activity against Candida albicans; assay type: functional, organism-based
Aspergillus fumigatus = test: Antifungal activity against Aspergillus fumigatus; assay type: functional, organism-based
Salmonella typhi = test: Antibacterial activity against Salmonella enterica subsp. enterica serovar Typhi; assay type: functional, organism-based

Compound | inhibition [1] [%] | Activity (Aspergillus niger) | Activity (Bacillus subtilis) | Activity (Penicillium chrysogenum) | Activity (Candida albicans) | Activity (Aspergillus fumigatus) | Activity (Salmonella typhi)
COc1cc(OC)c2c(C(=O)/C=C(\O)C(=O)O)cn(Cc3ccc(Cl)cc3Cl)c2c1 | 79.2 |  |  |  |  |  | 
CCOC(=O)/C(O)=C/C(=O)c1cn(Cc2ccc(Cl)cc2Cl)c2ccc(OC)c(OC)c12 | 87.7 | Active | Active | Active |  |  | 
COc1ccc2c(c(C(=O)/C=C(\O)C(=O)O)cn2Cc2ccc(Cl)cc2Cl)c1OC | 78.2 |  |  |  |  |  | 
CCOC(=O)/C(O)=C/C(=O)c1cn(Cc2ccc(Cl)cc2Cl)c2cc(OC)cc(OC)c12 | 87.6 |  | Active | Active | Active |  | 
CC(=O)N1CCN(c2ccc(OCC3COC(Cn4ccnc4)(c4ccc(Cl)cc4Cl)O3)cc2)CC1 (centres undefined) |  |  |  |  | Active | Active | 
COc1ccc(OC)c2c1c(C(=O)/C=C(\O)C(=O)O)cn2Cc1ccc(Cl)cc1Cl | 82.8 |  |  |  |  |  | 
CCOC(=O)/C(O)=C/C(=O)c1cn(Cc2ccc(Cl)cc2Cl)c2cc(OC)c(OC)cc12 | 80.9 |  | Active |  | Active | Active | 
CCOC(=O)/C(O)=C/C(=O)c1cn(Cc2ccc(Cl)cc2Cl)c2c(OC)ccc(OC)c12 | 86.5 | Active |  | Active | Active | Active | Active
COc1cc2c(C(=O)/C=C(\O)C(=O)O)cn(Cc3ccc(Cl)cc3Cl)c2cc1OC | 78.6 |  |  |  |  |  | 
